Data reported in patent US4472388A, “N-Methanesulfonic acid derivatives of 3-O-demethylistamycin B and production thereof” (Zaidan Hojin Biseibutsu Kagaku Kenkyu Kai, priority 1982, dated 1984).
In brackets after ≈: the same amount, converted by molar mass.

Tests used:
[1] = system: Staphylococcus aureus 209P; experiment: Minimum inhibitory concentration, serial dilution on Mueller-Hinton agar; format: cell-based; details: 37° C., 17 hours
From the text: (§1) Minimum inhibitory concentrations (mcg/ml) of the parent 3-O-demethylistamycin B were also estimated in the same manner for the comparison purpose and also are shown in Table 1.

[2] = system: Escherichia coli JR66/W677; experiment: as above; format: cell-based; details: for Minimum inhibitory concentration: Escherichia coli JR66/W677, Mueller-Hinton agar, 37° C., 17 hours
From the text: as §1

[3] = system: Pseudomonas aeruginosa GN315; experiment: as above; format: cell-based; details: for Minimum inhibitory concentration: Pseudomonas aeruginosa GN315, Mueller-Hinton agar, 37° C., 17 hours
From the text: as §1

Serratia marcescens = experiment: as above; format: cell-based; details: for Minimum inhibitory concentration: Mueller-Hinton agar, 37° C., 17 hours
From the text: as §1

[4] = system: Staphylococcus aureus Ap01; experiment: as above; format: cell-based; details: 37° C., 17 hours
From the text: as §1

[5] = system: Pseudomonas aeruginosa TI-13; experiment: as above; format: cell-based; details: for Minimum inhibitory concentration: Pseudomonas aeruginosa TI-13, Mueller-Hinton agar, 37° C., 17 hours
From the text: as §1

[6] = system: Pseudomonas aeruginosa A3; experiment: as above; format: cell-based; details: for Minimum inhibitory concentration: Pseudomonas aeruginosa A3, Mueller-Hinton agar, 37° C., 17 hours
From the text: as §1

[7] = system: Pseudomonas aeruginosa H9; experiment: as above; format: cell-based; details: 37° C., 17 hours
From the text: as §1

Providencia Pv 16 = experiment: as above; format: cell-based; details: 17 hours; for Minimum inhibitory concentration: 37° C.
From the text: as §1

[8] = Acute toxicity, intravenous administration in mice; format: in vivo; details: ICR mice
Experimental: A test compound was diissolved in 0.25 ml of a physiological saline solution and the solution of the test compound so prepared was intravenously administered into a series of mouse groups each consisting of six mice (ICR strain, adult female, body weight 20 g±0.5 g) as the test animal, […] Acute toxicity of 3-O-demethylistamycin B was also estimated in the same manner as above for the comparison purpose. […]

[9] = system: gram-negative and gram-positive bacteria, including Pseudomonas aeruginosa; details: cited earlier filings; cited from earlier work
Escherichia coli JR225 = experiment: Minimum inhibitory concentration, serial dilution on Mueller-Hinton agar; format: cell-based; details: JR225, 17 h, read-out: Minimum inhibitory concentration
From the text: as §1

[10] = system: Escherichia coli K-12 C600 R135; experiment: as above; format: cell-based; details: K12C600R135, 37° C., 17 hours
From the text: as §1

Escherichia coli K-12 R5 = experiment: as above; format: cell-based
From the text: as §1

Escherichia coli K-12 = experiment: as above; format: cell-based; details: K12, 37° C., 17 hours
From the text: as §1

[11] = system: Escherichia coli K-12 ML1629; experiment: as above; format: cell-based; details: K12ML1629, 37° C., 17 hours
From the text: as §1

[12] = system: Escherichia coli K-12 LA290 R55; experiment: as above; format: cell-based
From the text: as §1

| Compound | Minimum inhibitory concentration [1] [µg/mL] | Minimum inhibitory concentration [2] [µg/mL] | Minimum inhibitory concentration [3] [µg/mL] | Minimum inhibitory concentration (Serratia marcescens) [µg/mL] | Minimum inhibitory concentration [4] [µg/mL] | Minimum inhibitory concentration [5] [µg/mL] | Minimum inhibitory concentration [6] [µg/mL] | Minimum inhibitory concentration [7] [µg/mL] | Minimum inhibitory concentration (Providencia Pv 16) [µg/mL] | other results |
| --- | --- | --- | --- | --- | --- | --- | --- | --- | --- | --- |
| 3-O-demethylistamycin B-tri-N-methanesulfonic acid sodium salt [Compound (3)] | 0.78 | 6.25 | 12.5 | 12.5 | 1.56 | 6.25 | 0.78 | 12.5 | 3.13 | – |
| CNCC1CCC(N)C(OC2C(N)CC(O)C(N(C)C(=O)CN)C2O)O1 (centres unmarked) [3-O-demethylistamycin B] | – | – | – | – | – | – | – | – | – | death of mice ([8]; 320 mg/kg, within 24 hours): all mice died within 24 hours; LD50 ([8]; mouse, in vivo, adult female): 160 to 320 mg/kg; antibacterial activity [9]: high antibacterial activity; MIC [1]: 0.39 µg/mL (≈ 1.04 µM); MIC ([2]; Escherichia coli, JR66/W677, 17 h, read-out: Minimum inhibitory concentration): 1.56 µg/mL (≈ 4.15 µM); MIC (Escherichia coli JR225): 0.78 µg/mL (≈ 2.08 µM); MIC ([3]; Pseudomonas aeruginosa, GN315, 17 h, read-out: Minimum inhibitory concentration): 6.25 µg/mL (≈ 16.6 µM); MIC [10]: 1.56 µg/mL (≈ 4.15 µM); MIC (Serratia marcescens; 17 h, read-out: Minimum inhibitory concentration): 1.56 µg/mL (≈ 4.15 µM); MIC [4]: 0.39 µg/mL (≈ 1.04 µM); MIC (Escherichia coli K-12 R5; Escherichia coli, K12R5, 17 h, read-out: Minimum inhibitory concentration): 3.13 µg/mL (≈ 8.34 µM); MIC ([5]; Pseudomonas aeruginosa, TI13, 17 h, read-out: Minimum inhibitory concentration): 6.25 µg/mL (≈ 16.6 µM); MIC (Escherichia coli K-12): 0.78 µg/mL (≈ 2.08 µM); MIC ([6]; Pseudomonas aeruginosa, A3, 17 h, read-out: Minimum inhibitory concentration): 0.2 µg/mL (≈ 0.533 µM); MIC [7]: 12.5 µg/mL (≈ 33.3 µM); MIC (Providencia Pv 16; PV16, 37° C.): 0.78 µg/mL (≈ 2.08 µM); MIC [11]: 1.56 µg/mL (≈ 4.15 µM); MIC ([12]; Escherichia coli, K12LA290R55, 17 h, read-out: Minimum inhibitory concentration): 0.78 µg/mL (≈ 2.08 µM) |
| 3-O-demethylistamycin B-di-N-methanesulfonic acid sodium salt [Compound (2)] | 1.56 | 6.25 | 6.25 | 12.5 | 1.56 | 6.25 | 3.13 | 12.5 | 3.13 | – |
| 3-O-demethylistamycin B-tetra-N-methanesulfonic acid sodium salt [Compound (4)] | 1.56 | 25 | 25 | 25 | 3.13 | 25 | 1.56 | 25 | 6.25 | Minimum inhibitory concentration (Escherichia coli K-12 R5; Escherichia coli K-12 R5, Mueller-Hinton agar, 37° C., 17 hours): 25 µg/mL; Minimum inhibitory concentration ([12]; Escherichia coli K-12 LA290 R55, Mueller-Hinton agar, 37° C., 17 hours): 12.5 µg/mL |
| 3-O-demethylistamycin B-mono-N-methanesulfonic acid sodium salt [Compound (1)] | 0.78 | 6.25 | 12.5 | 6.25 | 1.56 | 6.25 | 0.78 | 12.5 | 3.13 | – |
